Like-named read-outs stand apart in the source and are kept apart here.

In series [1] the test system is healthy volunteers (men and women). The series is described as follows: Local and general tolerability and safety of airborne nasal delivery. As to conditions: 12 ng intranasal; for Adverse effects reported: during the intervention and 24 hours after. It counts as in vivo, human. The procedure: The physiologic and psychological effects of pregna-5,20-dien-3β-ol were investigated in men and women. Additionally, the local and general tolerability and safety of pregna-5,20-dien-3β-ol delivered airborne to the nasal passages were also evaluated.
After completion of physiologic recordings and the modified DABS-70 (#3), all surface electrodes were removed and the subject went through an exit interview lasting 5 minutes. At this time the investigator recorded again the arterial blood pressure and also inquired the subject about his or her state of feelings, and also any possible adverse effect appearing during the study session.

The test system of series [2] is peripheral nasal chemosensory receptors. As to conditions: cited from earlier work; for Cross adaptation / fatigue of the receptors toward androstadienone: repeated stimulation, local electrical response of human vomeronasal epithelium, Monti-Bloch et al. 1994.
Series [3] concerns healthy volunteers (men and women). The series is described as follows: Behavioral effects by modified DABS-70 inventory after nasal exposure. Type of series: in vivo, human. As to conditions: for Sensuality cluster mean: modified DABS-70, items scored 0-4. The procedure:
We assessed the resulting physiological responses and behavioral changes induced by nasal exposure to 12 ng pregna-5,20-dien-3β-ol in 76 volunteers (38 women and 38 men), age 18 to 46 (Table 1) using a placebo-controlled, single blind and crossover study design. The items of the modified DABS-70 were rearranged during consecutive administrations, in order to minimize the effect of learning.
Forty of the items on the standard DABS-70 questionnaire are descriptions of “ways people feel”, and subjects indicate whether they had experienced each emotion “never”, “rarely”, “sometimes”, “frequently”, or “always” in the last two weeks. The remaining 30 items on the standard DABS-70 questionnaire are personality characteristics for which subjects describe themselves as “not at all,” “a little bit,” “moderately” “quite a bit” or “extremely,” depending on the degree to which they feel each trait is typical of them. In the modified DABS-70 questionnaire, sixty-seven items were selected and assessed and during the testing the questions were randomized to minimize or prevent “learning” the questionnaire by the volunteers. This psychometric instrument was chosen because several items were of a sexual connotation and could be used to quantify the effects of pregna-5,20-dien-3β-ol on sexuality.
Subjects who participated were asked, as a baseline, to fill out the modified DABS-70 as to their personality characteristics and feelings as they currently perceived them. Each item was quantified ranging from an individual's perception of “not at all” (0) to “extremely” (4). At the beginning of the questionnaire was a statement that they might feel differently after the blind and randomized exposure to the contents of a perfumery grade smelling strip positioned on the upper lip. The baseline electrophysiological measurements were performed after the questionnaire was completed, and again 5 minutes before the second randomized exposure (FIG. 3). Twenty minutes after the first randomized exposure to control or pregna-5,20-dien-3β-ol and again 20 minutes after the second randomized exposure to control or pregna-5,20-dien-3β-ol (in both instances, 5 minutes after the second and fourth set of electrophysiological measurements), the modified DABS-70 was administered again (FIG. 4). This task took approximately 10 minutes to complete, and the order of the questions of each consecutive modified DABS-70 administered was rearranged in order to minimize the effect of learning during prior administration of the test.
Active substance (pregna-5,20-dien-3β-ol) and control were freshly prepared on 0.7 cm×10 cm perfumery grade smelling strips 24 hours before the experiment. A perfumery grade smelling strip was positioned on the upper lip of the subject for delivery of control or active substance to the nasal passages for a period of 20 minutes. Each breath carried vapors of pregna-5,20-dien-3β-ol or control (air) from the paper strip to the nasal passages.
Perfumery grade smelling strips containing either pregna-5,20-dien-3β-ol or control were prepared as follows: 100 μl of stock solution containing 100 mg pregna-5,20-dien-3β-ol/10 mL ethanol (95%) was added to a clean paper strip. Ethanol was allowed to evaporate overnight in a clean fume hood, and 1 mg of dry crystals of pregna-5,20-dien-3β-ol remained embedded in the dried perfumery grade smelling strip. Control was a perfumery grade smelling strip prepared following the same procedure but the solution was devoid of active substance.
The following assumptions were used to calculate the quantity of pregna-5,20-dien-3β-ol delivered to the nasal passages during a study session: a) the quantity of pregna-5,20-dien-3β-ol arriving to the nasal passages with each breath is ≈40 pg (determined as described below); b) the average respiratory rate at rest in men and women is ≈15 breaths per minute; and c) the subject was exposed to pregna-5,20-dien-3β-ol for 20 min during the entire study session. […]

The mark [4] stands for this setting: MALE, 12 ng nasal, modified DABS-70 item.
The mark [5] stands for this setting: men (N = 38), 12 ng nasal over 20 min, modified DABS-70.
Setting [6] is: men and women, regardless of gender, 12 ng nasal, p<0.0001.
Setting [7] is: women (N = 38), 12 ng nasal over 20 min, modified DABS-70.

For the compound `C=C[C@H]1CC[C@H]2[C@@H]3CC=C4C[C@@H](O)CC[C@]4(C)[C@H]3CC[C@]12C` [pregna-5,20-dien-3β-ol, Pregna-5,20-dien-3β-ol], in series [1], the “Arterial blood pressure, beginning of session vs exit interview” value is on record as “absence of significant arterial blood pressure difference” and the Adverse effects reported entry is given as “no adverse effects reported”. Also, the Tolerability entry in series [1] (airborne, all volunteers of both gender groups) is “well tolerated”. Besides, in series [1] (listed as Pregna-5,20-dien-3β-ol), the Adverse effects reported result was “no reports of local or general adverse side effects”. The “Local nasal discomfort / clinical examination of the nasal passages” value in series [1] (end of the recording session) is reported as “did not reveal local lesions and/or inflammation”. In addition, in series [2] (androstadienone 27 picograms, muricin aglycone 30 picograms, adapted from Monti-Bloch et al. (1994)), the “Depolarization of the electrogram of peripheral nasal chemosensory receptors” value was “robust depolarization”. For the same compound, the “Cross adaptation / fatigue of the receptors toward androstadienone” value in series [2] (listed as Muricin aglycone) is reported as “elicit cross adaptation”. Further, in series [2] (listed as muricin aglycone), the “Cross adaptation / fatigue of the receptors toward androstadienone” value is “produces fatigue of the receptors”. In addition, the “ENERGETIC item, ACTIVE MEAN” value in series [3] (FEMALE, 12 ng nasal, modified DABS-70 item) is recorded as 2.07. In series [3] (setting [4]), the “LOVING item, ACTIVE MEAN” value is listed as 2.42 and the “WARM item, ACTIVE MEAN” value is reported as 2.25. In series [3] (setting [5]), the Arousal/Excitement cluster mean amounted to 2.006, the Negativity cluster mean was 0.246, the “Personal Well-Being cluster mean” value was 2.607 and the “Social Warmth/Friendliness cluster mean” value is on record as 2.147. In series [3] (men (N = 38), 12 ng nasal over 20 min), this compound showed a Sensuality cluster mean of 1.286. Besides, the “Social Warmth and Friendliness cluster, overall response versus control” value in series [3] (men and women, regardless of gender, 12 ng nasal, p<0.00001) is on record as “active>control”. Also, in series [3] (setting [6]), the “Arousal and Excitement cluster, overall response versus control” value was “active>control”; the “Sensuality cluster, overall response versus control” value was “active>control”. Also, in series [3] (men and women, 12 ng nasal), the “Negativity cluster, response versus control” value is on record as “not associated with being exposed to active versus control treatment”. Further, in series [3] (setting [7]), the Arousal/Excitement cluster mean amounted to 1.857, the Negativity cluster mean came out at 0.238 and the “Social Warmth/Friendliness cluster mean” value is 1.92. The Sensuality cluster mean in series [3] (women (N = 38), 12 ng nasal over 20 min) came to 1.446.

Source of the values: patent US20140045805A1, “Fragrance Compositions and Other Compositions Which Contain Naturally Occurring Substances Found in Corals” (priority 2007, published 2014).
